Data on four molecules can be found in patent publication US5023358A, “Vanadyl organo-mineral compound, method for obtaining such a compound, pharmaceutical composition containing this organo-mineral compound” (Panmedica S.A., priority 1987, dated 1991).

One data set deals with Na^+ /K^+ ATP ase enzyme. The note with it: absorption mechanisms; cited from earlier work.
For the next data set, the system named is insulin receptor. The note with it: intra-cellular, vanadyl (V^4+) form; cited from earlier work.
Data set [1] deals with diabetic rats. The note with it: cited from earlier work.
Data set [2] concerns male rats of the WISTAR strain. Type of data set: in vivo. The settings on record: oral, rat. The text has this: First, the potential toxicity of the complex has been investigated.
The investigation has been carried out starting from the bimolecular vanadyl compound having one free amin group, of the general formula (II). After a unique oral administration to the rat, the measured toxicity of the compound of formula (II) on the one hand and of the vanadyl sulfate on the other hand have been compared.
The procedure of the toxicological tests is as follows.
On the one hand, the toxicity of the compound (II) is examined by administering orally increasing doses of compound (II), up to 1 g/kg, to a group of 10 male rats of the WISTAR strain with a mean weight of 150 g. A quantity of 10 ml/kg of a suspension of compound (II) in 3% gum arabic is administered, by forcible feeding, to animals which have not been fed. Then, the animals are examined for 14 days, in order to count for the deaths and to search and observe the signs of toxicity.
On the other hand, the acute toxicity of the vanadyl sulfate (VOSO4) is contemplated under similar conditions on animals divided into 7 groups of 10 animals to which the following doses have been administered: 300, 400, 500, 600, 800, 1000 and 1500 mg/kg.
The lethal dose (LD50) has been calculated by the method of […] AND WILCOXON.

The subject of data set [3] is diabetic rats. Put plainly: Glycemia of diabetic (streptozotocin) and non-diabetic rats after a unique oral administration. Type of data set: in vivo, rat. The text has this:
Then, the anti-diabetic activity of the above described complex of vanadyl and cystein has been examined.
The examination has been performed also starting from the compound with the formula (II). The activity of this compound has been compared on diabetic rats and on non-diabetic rats, and the activity of this compound (II) has be compared with that of the vanadyl sulfate.
Tests have been carried out on animals having a glycemia higher than 3 g/l.
The method is as follows. Diabetes is induced by intraveinous injection of a unique dose of streptozotocin of about 50 mg/kg, on male or female rats of the WISTAR strain with a mean weight of 200 g. The glycemia is measured 4 days after the injection.
The procedure of the pharmacological tests is as follows. A quantity of 45 mg/kg of compound (II) is administered by forcible feeding (doses of 10 ml/kg) to animals which have been fed, in the form of a suspension in a 3% solution of gum arabic. A dose of vanadyl sulfate equimolar to 45 mg/kg of compound (II) is administered.
The glycemia is measured by quantitative analysis. Blood is sampled from the tail of the animal. The glycemia is measured by means of a device named "AMES glucometer" (trade-mark). The rate of glycemia is read on "Derotrostix" dipsticks (trade-mark) of the aforesaid device.

The subject of data set [4] is diabetic rats. The note with it: oral, cited from earlier work.
Where [5] appears, read: 45 mg/kg compound (II) or equimolar vanadyl sulfate.

As to `[O]=[V]([O-])([O-])[O-]` [vanadate], the “effect on Na+/K+ ATPase” value in the data set on Na^+ /K^+ ATP ase enzyme was “inhibiting the Na^+ /K^+ ATP ase enzyme”.

Turning to `[O]=[V+2]` [vanadyl (V^4+)], the “effect on phosphorylation of the insulin receptor” value in the data set on insulin receptor is on record as “facilitating or inducing the phosphorylation of the insulin receptor”.

With sodium vanadate, in the data set on diabetic rats [1] (in drink water, diabetic rats), the “effect on cardiac function impairment associated to diabetes” value is reported as “the impairing of the cardiac function associated to diabetes is prevented” and the “effect on glycemia of diabetic rats” value is “the glycemia of the rats is normalized”. In addition, the “anti-diabetic effect, taken orally” value in the data set with diabetic rats [1] (oral) was “has an anti-diabetic effect”.

In the case of `O=S(=O)([O-])[O-].[O]=[V+2]` [vanadyl sulfate], in data set [2] (800, 1000 and 1500 mg/kg), the “signs of toxicity at the higher doses” value was “an hypothermia and cases of chromodacryorrhoea”. Moreover, in data set [2] (unique administration), the “dose of first signs of toxicity” value is given as 400 mg/kg. In data set [2] (unique administration, 20160 min), the LD50 was 600 mg/kg. Moreover, in data set [2] (unique administration, general and from 400 mg/kg), the signs of toxicity entry is “diarrhoea with a variable seriousness, a decrease of the motor activity and a loss of flesh”. In addition, in the data set on diabetic rats [3] (setting [5]), the “duration of the drop of glycemia” value was not above 2 h; the effect on glycemia entry is “weaker and transitory decrease of the glycemia”. In addition, the “maximal decrease of glycemia” value in the data set with diabetic rats [3] (vanadyl sulfate equimolar to 45 mg/kg of compound (II)) was “about 1 g/l”. The acute toxicity entry with diabetic rats [4] (diabetic rats) is “presents an acute toxicity”. Besides, in the data set with diabetic rats [4], the “anti-diabetic effect in diabetic rats” value was “has an anti-diabetic effect”.

Broadly, the LD50 is the dose at which mortality reaches 50%. The low end stands for a more toxic substance, the high end for a less toxic substance.
